Results published in ChEMBL document CHEMBL1201862, “PubChem BioAssay data set” (2004).
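Values below derive from 48-hour exposures of cells grown in 96-well plates, with endpoints linearly interpolated between the two concentrations bracketing the appropriate inhibition level. GI50: concentration for 50% inhibition of growth.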 Activity calls are given as the source filed them. Cut-off read from the data, not from the text of the source: active = GI50 up to about 1.1 µM and inactive = higher.

Legend:
Assay in all cases: NCI anticancer screen, dose series, 48 h
UACC-62 = tested on: UACC-62
OVCAR-5 = tested on: OVCAR-5
LOX IMVI = tested on: LOX IMVI
SK-OV-3 = tested on: SK-OV-3
COLO 205 = tested on: COLO 205
SNB-19 = tested on: SNB-19
K562 = tested on: K562
HOP-92 = tested on: HOP-92
SF-295 = tested on: SF-295
MDA-N = tested on: MDA-N
M14 = tested on: M14
786-0 = tested on: 786-0
CCRF-CEM = tested on: CCRF-CEM
HOP-62 = tested on: HOP-62
OVCAR-3 = tested on: OVCAR-3
NCI-H23 = tested on: NCI-H23
U-251 = tested on: U-251
DU-145 = tested on: DU-145
HL-60 = tested on: HL-60
HCT-15 = tested on: HCT-15

| SMILES | GI50 (UACC-62) | GI50 (OVCAR-5) | GI50 (LOX IMVI) | GI50 (SK-OV-3) | GI50 (COLO 205) | GI50 (SNB-19) | GI50 (K562) | GI50 (HOP-92) | GI50 (SF-295) | GI50 (MDA-N) | GI50 (M14) | GI50 (786-0) | GI50 (CCRF-CEM) | GI50 (HOP-62) | GI50 (OVCAR-3) | GI50 (NCI-H23) | GI50 (U-251) | GI50 (DU-145) | GI50 (HL-60) | GI50 (HCT-15) |
| --- | --- | --- | --- | --- | --- | --- | --- | --- | --- | --- | --- | --- | --- | --- | --- | --- | --- | --- | --- | --- |
| COc1ccc(Br)c(/C=N\c2cccc3cc(OC)c(OC)cc23)c1 | 10.3 µM (inactive) | 72.1 µM (inactive) | 4.57 µM (inactive) | 55.1 µM (inactive) | 79.3 µM (inactive) | 13.2 µM (inactive) | 3.52 µM (inactive) | 20.2 µM (inactive) | 12.8 µM (inactive) | 3.44 µM (inactive) | 3.84 µM (inactive) | 13.7 µM (inactive) | 2.82 µM (inactive) | 9.64 µM (inactive) | 9.12 µM (inactive) | 32.8 µM (inactive) | 2.99 µM (inactive) | 52.1 µM (inactive) | 0.865 µM (active) | 2.47 µM |
| O=C(NC(=O)c1ccccc1[N+](=O)[O-])Nc1ccc(Oc2ncc(Cl)cn2)c([N+](=O)[O-])c1 | 0.0834 µM (active) | 0.875 µM (active) | 0.895 µM (active) | 0.146 µM (active) | 0.34 µM (active) | 2.02 µM (inactive) | 0.0339 µM (active) | 0.27 µM (active) | 0.157 µM (active) | 0.0227 µM (active) | 0.175 µM (active) | 0.225 µM (active) | 0.126 µM (active) | 0.303 µM (active) | 0.0644 µM (active) | 0.411 µM (active) | 0.255 µM (active) | 0.291 µM (active) | 0.0299 µM (active) | 0.0855 µM |
| O=[N+]([O-])c1ccc(S(=O)(=O)Cc2ccccc2)c([N+](=O)[O-])c1 | 2.24 µM (inactive) | 9.55 µM (inactive) | 1.79 µM (inactive) | 6.78 µM (inactive) | 1.79 µM (inactive) | 17.6 µM (inactive) | 1.13 µM (inactive) | 1.79 µM (inactive) | 16.6 µM (inactive) | 1.96 µM (inactive) | 1.87 µM (inactive) | 1.58 µM (inactive) | 0.17 µM (active) | 2.9 µM (inactive) | 1.44 µM (inactive) | 1.9 µM (inactive) | 2.23 µM (inactive) | 3.63 µM (inactive) | 1.91 µM (inactive) | 1.82 µM |
| CC1N[B@@-](C)(c2ccc(C(F)(F)F)cc2)OC1c1ccccc1 (stereo not given in full) | > 100 µM (inactive) | > 100 µM (inactive) | 98.2 µM (inactive) | > 100 µM (inactive) | > 100 µM (inactive) | > 100 µM (inactive) | 66.2 µM (inactive) | 20.4 µM (inactive) | > 100 µM (inactive) | > 100 µM (inactive) | > 100 µM (inactive) | > 100 µM (inactive) | 42.6 µM (inactive) | > 100 µM (inactive) | 57.8 µM (inactive) | > 100 µM (inactive) | > 100 µM (inactive) | > 100 µM (inactive) | 12.7 µM (inactive) | 49.1 µM |
| CC(C)(C)n1c(=O)n2n(c1=O)C1c3cccc4cccc(c34)C2C2c3cccc4cccc(c34)C1n1c(=O)n(C(C)(C)C)c(=O)n12 | 66.4 µM (inactive) | > 100 µM (inactive) | 42.8 µM (inactive) | 96.8 µM (inactive) | > 100 µM (inactive) | > 100 µM (inactive) | 87.5 µM (inactive) | > 100 µM (inactive) | 80.4 µM (inactive) | > 100 µM (inactive) | > 100 µM (inactive) | > 100 µM (inactive) | 32.7 µM (inactive) | 67.3 µM (inactive) | 16.3 µM (inactive) | 95.7 µM (inactive) | 43 µM (inactive) | 80.2 µM (inactive) | 30.5 µM (inactive) | 74.5 µM |
| Cc1cc(-c2nc3ccccc3s2)ccc1N | 46.1 µM (inactive) | 19.5 µM (inactive) | 31.6 µM (inactive) | 55.5 µM (inactive) | 40.7 µM (inactive) | > 70.1 µM (inactive) | 38.8 µM (inactive) | > 100 µM (inactive) | 43 µM (inactive) | 60.7 µM (inactive) | 36.8 µM (inactive) | 57.8 µM (inactive) | 9.44 µM (inactive) | 49.9 µM (inactive) | 35.9 µM (inactive) | 40.4 µM (inactive) | 45 µM (inactive) | 46.6 µM (inactive) | 15.7 µM (inactive) | 42.3 µM |
| O=c1[nH]c2c(C(F)(F)F)c(Cl)c(-c3ccccc3)nc2o1 | 75.5 µM (inactive) | 11.8 µM (inactive) | 27.1 µM (inactive) | 23.6 µM (inactive) | 14.9 µM (inactive) | 25.5 µM (inactive) | 27.2 µM (inactive) | 9.33 µM (inactive) | 13.3 µM (inactive) | 14.8 µM (inactive) | 21.5 µM (inactive) | 24.4 µM (inactive) | 10 µM (inactive) | 35.4 µM (inactive) | 17.3 µM (inactive) | 15.3 µM (inactive) | 19.3 µM (inactive) | 38.1 µM (inactive) | 1.41 µM (inactive) | 22.1 µM |
| CC(/C=C/C(=O)NO)=C\C(C)C(=O)c1ccc(N(C)C)cc1 (stereo not given) | 0.0512 µM (active) | 0.114 µM (active) | < 0.01 µM (active) | 0.0498 µM (active) | 0.0209 µM (active) | 0.0281 µM (active) | 0.0325 µM (active) | 0.0652 µM (active) | 0.0951 µM (active) | 0.0287 µM (active) | 0.0668 µM (active) | 0.0339 µM (active) | < 0.01 µM (active) | 0.0391 µM (active) | 0.0119 µM (active) | 0.0331 µM (active) | 0.0142 µM (active) | 0.0176 µM (active) | 0.207 µM (active) | 0.0313 µM |
| CCCC(=O)Nc1ncnc2c1ncn2C1OC2COP(=O)(O)OC2C1OC(=O)CCC (stereo not given) | > 100 µM (inactive) | > 100 µM (inactive) | > 100 µM (inactive) | > 100 µM (inactive) | > 100 µM (inactive) | > 100 µM (inactive) | > 100 µM (inactive) | > 1000 µM (inactive) | > 100 µM (inactive) | > 100 µM (inactive) | > 100 µM (inactive) | > 100 µM (inactive) | 266 µM (inactive) | > 100 µM (inactive) | > 100 µM (inactive) | > 100 µM (inactive) | > 100 µM (inactive) | > 100 µM (inactive) | 180 µM (inactive) | > 100 µM |
| COc1ccc(\N=C/C=C/C(=C/COC(C)=O)OC(C)=O)cc1 | 37.1 µM (inactive) | 40.5 µM (inactive) | 25.6 µM (inactive) | 91.2 µM (inactive) | 25.4 µM (inactive) | 58.6 µM (inactive) | 4.89 µM (inactive) | 20.5 µM (inactive) | 58.5 µM (inactive) | 9.38 µM (inactive) | 32.7 µM (inactive) | 23 µM (inactive) | 4.56 µM (inactive) | 51.4 µM (inactive) | 20.7 µM (inactive) | 16.8 µM (inactive) | 25.9 µM (inactive) | 39.4 µM (inactive) | 19.1 µM (inactive) | 36.6 µM |
| CN(C)CCCNCc1cccc2ccccc12 | > 100 µM (inactive) | > 100 µM (inactive) | > 100 µM (inactive) | > 100 µM (inactive) | > 100 µM (inactive) | > 100 µM (inactive) | > 100 µM (inactive) | 78.3 µM (inactive) | > 100 µM (inactive) | > 100 µM (inactive) | 66.5 µM (inactive) | > 100 µM (inactive) | > 100 µM (inactive) | > 100 µM (inactive) | > 100 µM (inactive) | > 100 µM (inactive) | > 100 µM (inactive) | > 100 µM (inactive) | > 100 µM (inactive) | > 100 µM |
| Cc1cc(C)cc(C(=N)c2ccccc2Cc2cccc3ccccc23)c1 | 13.9 µM (inactive) | 16.6 µM (inactive) | 18 µM (inactive) | 17.5 µM (inactive) | 21.3 µM (inactive) | 19.5 µM (inactive) | 16.3 µM (inactive) | 13.3 µM (inactive) | 11 µM (inactive) | 21.1 µM (inactive) | 16.5 µM (inactive) | 15.2 µM (inactive) | 9.73 µM (inactive) | 18 µM (inactive) | 18.7 µM (inactive) | 15.7 µM (inactive) | 40.6 µM (inactive) | 16.2 µM (inactive) | 13.3 µM (inactive) | 16.1 µM |
| Cc1cc(/N=C/c2ccc(F)cc2)n(-c2ccccc2)n1 | > 100 µM (inactive) | > 100 µM (inactive) | > 100 µM (inactive) | > 100 µM (inactive) | 37.1 µM (inactive) | > 100 µM (inactive) | 59.3 µM (inactive) | 89.1 µM (inactive) | 57.5 µM (inactive) | 73.3 µM (inactive) | > 100 µM (inactive) | > 100 µM (inactive) | 34.6 µM (inactive) | > 100 µM (inactive) | > 100 µM (inactive) | 82.2 µM (inactive) | > 100 µM (inactive) | > 100 µM (inactive) | 30.3 µM (inactive) | 48.2 µM |
| COc1cccc(N2CCc3c(C)c(C#N)c4nc5ccccc5n4c32)c1 | > 100 µM (inactive) | > 100 µM (inactive) | > 100 µM (inactive) | 48.1 µM (inactive) | > 100 µM (inactive) | 39.3 µM (inactive) | > 100 µM (inactive) | 22.1 µM (inactive) | > 100 µM (inactive) | > 100 µM (inactive) | > 100 µM (inactive) | 58.3 µM (inactive) | > 100 µM (inactive) | > 100 µM (inactive) | > 100 µM (inactive) | > 100 µM (inactive) | 53.6 µM (inactive) | > 100 µM (inactive) | > 100 µM (inactive) | > 100 µM |
